Measurements taken from patent US7781591B2, “Substituted 3-cyanopyridines as protein kinase inhibitors” (Wyeth LLC, priority 2006, dated 2010).

Molecular target: T1, human PKCθ full length enzyme (Homo sapiens, UniProt Q04759)
T1 construct: human PKCθ full length enzyme (Panvera Cat# P2996); purchased Panvera P2996
Assay: PKCθ IMAP assay (fluorescence polarization)
Assay type: biochemical
Settings: human PKCθ full length enzyme, IMAP; average value; read-out: IC50 PKCθ IMAP

T1 sequence (Q04759 whole entry): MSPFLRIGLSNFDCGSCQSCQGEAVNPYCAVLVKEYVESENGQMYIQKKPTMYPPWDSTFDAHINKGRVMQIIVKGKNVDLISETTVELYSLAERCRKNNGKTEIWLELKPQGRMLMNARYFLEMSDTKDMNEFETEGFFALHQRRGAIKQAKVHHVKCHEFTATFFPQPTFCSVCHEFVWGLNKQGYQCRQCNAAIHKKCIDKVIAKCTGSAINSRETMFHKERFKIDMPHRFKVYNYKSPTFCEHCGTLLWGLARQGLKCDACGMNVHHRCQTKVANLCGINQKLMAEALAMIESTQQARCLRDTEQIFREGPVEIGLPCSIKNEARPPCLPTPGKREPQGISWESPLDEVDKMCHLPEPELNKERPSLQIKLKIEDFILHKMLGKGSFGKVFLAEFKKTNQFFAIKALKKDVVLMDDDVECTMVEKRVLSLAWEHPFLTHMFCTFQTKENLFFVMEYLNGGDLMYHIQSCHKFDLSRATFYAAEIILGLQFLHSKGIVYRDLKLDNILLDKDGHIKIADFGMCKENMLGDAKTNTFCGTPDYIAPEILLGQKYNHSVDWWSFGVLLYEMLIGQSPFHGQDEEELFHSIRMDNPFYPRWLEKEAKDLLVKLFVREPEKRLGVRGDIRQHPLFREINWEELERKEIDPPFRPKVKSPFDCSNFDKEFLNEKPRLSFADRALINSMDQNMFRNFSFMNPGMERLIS

In order of rising IC50:
1. Cc1c(Nc2c(C#N)cncc2-c2cc3cc(CN4CCC(N5CCCCC5)CC4)ccc3o2)ccc2[nH]ccc12 [Compound 394, 5-[5-(1,4′-bipiperidin-1′-ylmethyl)-1-benzofuran-2-yl]-4-[(4-methyl-1H-indol-5-yl)amino]nicotinonitrile]  1 nM
2. Cc1c(Nc2c(C#N)cncc2-c2cc3cc(C=O)ccc3o2)ccc2[nH]ccc12 [Compound 465, 5-(5-formyl-1-benzofuran-2-yl)-4-[(4-methyl-1H-indol-5-yl)amino]nicotinonitrile]  1 nM
3. Cc1c(Nc2c(C#N)cncc2-c2cc3cc(CN4CCCCC4)ccc3o2)ccc2[nH]ccc12 [Compound 461, 4-[(4-methyl-1H-indol-5-yl)amino]-5-[5-(piperidin-1-ylmethyl)-1-benzofuran-2-yl]nicotinonitrile]  1 nM
4. COc1ccc(-c2cncc(C#N)c2Nc2ccc3[nH]ccc3c2C)cc1OCCNCCCc1ccccc1 [Compound 342, 5-(4-methoxy-3-{2-[(3-phenylpropyl)amino]ethoxy}phenyl)-4-[(4-methyl-1H-indol-5-yl)amino]nicotinonitrile]  1 nM
5. N#Cc1cncc(-c2cc3cc(CNC4CC4)ccc3s2)c1Nc1cccc2[nH]ccc12 [Compound 278, 5-{5-[(cyclopropylamino)methyl]-1-benzothien-2-yl}-4-(1H-indol-4-ylamino)nicotinonitrile]  2 nM
6. Cc1c(Nc2c(C#N)cncc2-c2ccc(OCCNCC3CCN(C)CC3)cc2)ccc2[nH]ccc12 [Compound 421, 4-[(4-methyl-1H-indol-5-yl)amino]-5-[4-(2-{[(1-methylpiperidin-4-yl)methyl]amino}ethoxy)phenyl]nicotinonitrile]  3 nM
7. N#Cc1cncc(-c2cc3cc(CN4CCCC4)ccc3s2)c1Nc1cccc2[nH]ccc12 [Compound 280, 4-(1H-indol-4-ylamino)-5-[5-(pyrrolidin-1-ylmethyl)-1-benzothien-2-yl]nicotinonitrile]  4 nM
8. Cc1c(Nc2c(C#N)cncc2-c2ccc(CN3CCC(N4CCCC4)CC3)o2)ccc2[nH]ccc12 [Compound 404, 4-[(4-methyl-1H-indol-5-yl)amino]-5-{5-[(4-pyrrolidin-1-ylpiperidin-1-yl)methyl]-2-furyl}nicotinonitrile]  4 nM
9. CCOCCNCCOc1ccc(-c2cncc(C#N)c2Nc2ccc3[nH]ccc3c2C)cc1 [Compound 416, 5-(4-{2-[(2-ethoxyethyl)amino]ethoxy}phenyl)-4-[(4-methyl-1H-indol-5-yl)amino]nicotinonitrile]  6 nM
10. Cc1c(Nc2c(C#N)cncc2-c2ccc(OCCN3CCC(CO)CC3)cc2)ccc2[nH]ccc12 [Compound 422, 5-(4-{2-[4-(hydroxymethyl)piperidin-1-yl]ethoxy}phenyl)-4-[(4-methyl-1H-indol-5-yl)amino]nicotinonitrile]  8 nM
11. COc1cc(-c2cncc(C#N)c2Nc2ccc3[nH]ccc3c2C)ccc1OCCNCCCc1ccccc1 [Compound 344, 5-(3-methoxy-4-{2-[(3-phenylpropyl)amino]ethoxy}phenyl)-4-[(4-methyl-1H-indol-5-yl)amino]nicotinonitrile]  8 nM
12. Cc1c(Nc2c(C#N)cncc2-c2ccc(CN(C)C)cc2)ccc2[nH]ccc12 [Compound 452, 5-{4-[(dimethylamino)methyl]phenyl}-4-[(4-methyl-1H-indol-5-yl)amino]nicotinonitrile]  8 nM
13. N#Cc1cncc(-c2cccc(O)c2)c1Nc1cccc2[nH]ccc12 [Compound 358, 5-(3-hydroxyphenyl)-4-(1H-indol-4-ylamino)nicotinonitrile]  10 nM
14. COC(=O)Nc1ccc(-c2cncc(C#N)c2Nc2ccc3[nH]ccc3c2C)cc1 [Compound 526, methyl (4-{5-cyano-4-[(4-methyl-1H-indol-5-yl)amino]pyridin-3-yl}phenyl)carbamate]  10 nM
15. Cc1c(Nc2c(C#N)cncc2-c2ccc(OCCN3CCN(CCN(C)C)CC3)cc2)ccc2[nH]ccc12 [Compound 428, 5-[4-(2-{4-[2-(dimethylamino)ethyl]piperazin-1-yl}ethoxy)phenyl]-4-[(4-methyl-1H-indol-5-yl)amino]nicotinonitrile]  15 nM
16. Cc1c(Nc2c(C#N)cncc2-c2cc3cc(CN4CCN(S(C)(=O)=O)CC4)ccc3o2)ccc2[nH]ccc12 [Compound 538, 4-[(4-methyl-1H-indol-5-yl)amino]-5-(5-{[4-(methylsulfonyl)piperazin-1-yl]methyl}-1-benzofuran-2-yl)nicotinonitrile]  15 nM
17. Cc1c(Nc2c(C#N)cncc2-c2ccc(CN3CCS(=O)(=O)CC3)o2)ccc2[nH]ccc12 [Compound 487, 5-{5-[(1,1-dioxidothiomorpholin-4-yl)methyl]-2-furyl}-4-[(4-methyl-1H-indol-5-yl)amino]nicotinonitrile]  16 nM
18. Cc1c(Nc2c(C#N)cncc2-c2cc3ccccc3o2)cc(Cl)c2[nH]ccc12 [Compound 531, 5-(1-benzofuran-2-yl)-4-[(7-chloro-4-methyl-1H-indol-5-yl)amino]nicotinonitrile]  20 nM
19. COc1ccc(-c2cncc(C#N)c2Nc2cccc3[nH]ccc23)cc1OCCN1CCN(C)CC1 [Compound 300, 4-(1H-indol-4-ylamino)-5-{4-methoxy-3-[2-(4-methylpiperazin-1-yl)ethoxy]phenyl}nicotinonitrile]  20 nM
20. 4-[(4-methyl-1H-indol-5-yl)amino]-5-(5-{[(3-phenylpropyl)amino]methyl}-2-furyl)nicotinonitrile [Compound 409]  27 nM
21. COc1ccc(-c2cncc(C#N)c2Nc2cccc3[nH]ccc23)cc1OCCN1CCOCC1 [Compound 299, 4-(1H-indol-4-ylamino)-5-[4-methoxy-3-(2-morpholin-4-ylethoxy)phenyl]nicotinonitrile]  30 nM
22. CC(=O)Nc1ccccc1-c1cncc(C#N)c1Nc1ccc2[nH]ccc2c1C [Compound 577, N-(2-{5-cyano-4-[(4-methyl-1H-indol-5-yl)amino]pyridin-3-yl}phenyl)acetamide]  36 nM
23. COCCOc1cccc(-c2cncc(C#N)c2Nc2ccc3[nH]ccc3c2C)c1 [Compound 483, 5-[3-(2-methoxyethoxy)phenyl]-4-[(4-methyl-1H-indol-5-yl)amino]nicotinonitrile]  36 nM
24. COc1ccc(-c2cncc(C#N)c2Nc2cccc3[nH]ccc23)cc1OCCCl [Compound 303, 5-[3-(2-chloroethoxy)-4-methoxyphenyl]-4-(1H-indol-4-ylamino)nicotinonitrile]  40 nM
25. Cc1c(Nc2c(C#N)cncc2-c2ccc(CN3CCCCC3)o2)ccc2[nH]ccc12 [Compound 402, 4-[(4-methyl-1H-indol-5-yl)amino]-5-[5-(piperidin-1-ylmethyl)-2-furyl]nicotinonitrile]  41 nM
26. COc1ccc(-c2cncc(C#N)c2Nc2cccc3[nH]ccc23)cc1OCCN1CCCCC1 [Compound 248, 4-(1H-indol-4-ylamino)-5-[4-methoxy-3-(2-piperidin-1-ylethoxy)phenyl]nicotinonitrile]  50 nM
27. COc1ccc(-c2cncc(C#N)c2Nc2cccc3[nH]ccc23)cc1OCCN(C)C [Compound 301, 5-{3-[2-(dimethylamino)ethoxy]-4-methoxyphenyl}-4-(1H-indol-4-ylamino)nicotinonitrile]  50 nM
28. Cc1c(Nc2c(C#N)cncc2-c2ccnc(CN3CCOCC3)c2)ccc2[nH]ccc12 [Compound 453, 4-[(4-methyl-1H-indol-5-yl)amino]-2′-(morpholin-4-ylmethyl)-3,4′-bipyridine-5-carbonitrile]  60 nM
29. Cc1c(Nc2c(C#N)cncc2-c2cccc(OCCCCCl)c2)ccc2[nH]ccc12 [Compound 501, 5-[3-(4-chlorobutoxy)phenyl]-4-[(4-methyl-1H-indol-5-yl)amino]nicotinonitrile]  89 nM
30. 5-(2,4-dimethoxyphenyl)-4-(1H-indol-4-ylamino)nicotinonitrile [Compound 337]  100 nM
31. N#Cc1cncc(-c2ccc(OCc3ccccc3)cc2)c1Nc1ccc2[nH]ccc2c1 [Compound 195, 5-[4-(benzyloxy)phenyl]-4-(1H-indol-5-ylamino)nicotinonitrile]  250 nM
32. COc1ccc(-c2cncc(C#N)c2N(C)c2ccc3[nH]ccc3c2)cc1OC [Compound 219, 5-(3,4-dimethoxyphenyl)-4-[1H-indol-5-yl(methyl)amino]nicotinonitrile]  270 nM
33. N#Cc1cncc(-c2cccc(-c3ccc(C(=O)NCc4cccnc4)cc3)c2)c1Nc1ccc2[nH]ccc2c1 [Compound 213, 3′-[5-cyano-4-(1H-indol-5-ylamino)pyridin-3-yl]-N-(pyridin-3-ylmethyl)biphenyl-4-carboxamide]  270 nM
34. COc1ccc(-c2cncc(C#N)c2Nc2ccc3[nH]ccc3c2)cc1-c1cccc(Cl)c1 [Compound 191, 5-(3′-chloro-6-methoxybiphenyl-3-yl)-4-(1H-indol-5-ylamino)nicotinonitrile]  320 nM
35. Cc1c(Nc2c(C#N)cncc2-c2cc3cc(CN4CCN(C(=O)OC(C)(C)C)CC4)ccc3o2)cc(Cl)c2[nH]ccc12 [Compound 548, tert-butyl 4-[(2-{4-[(7-chloro-4-methyl-1H-indol-5-yl)amino]-5-cyanopyridin-3-yl}-1-benzofuran-5-yl)methyl]piperazine-1-carboxylate]  406 nM
36. N#Cc1cncc(-c2cccc(-c3ccc(CN4CCOCC4)s3)c2)c1Nc1ccc2[nH]ccc2c1 [Compound 185, 4-(1H-indol-5-ylamino)-5-{3-[5-(morpholin-4-ylmethyl)-2-thienyl]phenyl}nicotinonitrile]  500 nM
37. N#Cc1cncc(-c2cccc(Br)c2)c1Nc1cccc2c1CC(=O)N2 [Compound 346, 5-(3-bromophenyl)-4-[(2-oxo-2,3-dihydro-1H-indol-4-yl)amino]nicotinonitrile]  540 nM
38. COc1ccc(-c2cncc(C#N)c2NCCC2CCN(C)CC2)cc1OC [Compound 447, 5-(3,4-dimethoxyphenyl)-4-{[2-(1-methylpiperidin-4-yl)ethyl]amino}nicotinonitrile]  1930 nM
39. Cc1noc(C)c1-c1cncc(C#N)c1Nc1ccc2[nH]ccc2c1 [Compound 269, 5-(3,5-dimethylisoxazol-4-yl)-4-(1H-indol-5-ylamino)nicotinonitrile]  10900 nM
